Test results taken from the supplement of paper PMC10307832.

Experiments:
Test in all cases: relative viability (nuclei count vs DMSO), 5 days (fraction); higher = more cells survive
ABC-1 = system: ABC-1
Method in brief: (§1)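 One day after seeding in 1536-well plates, lung cancer cell lines were dosed by pin tool. Dosing was either single-drug or a fixed anchor-drug dose plus five library-drug doses (not always all listed) in √10 steps. After 5 days, nuclei were stained in one fix-and-stain step and counted on 4× images, and relative viability is the nuclei count of treated wells over that of vehicle wells, given as the median of duplicate plates.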

BEN = system: BEN
Method in brief: as §1

EKVX = system: EKVX
Method in brief: as §1

EMC-BAC-2 = system: EMC-BAC-2
Method in brief: as §1

EPLC-272H = system: EPLC-272H
Method in brief: as §1

HCC-78 = system: HCC-78
Method in brief: as §1

HCC-827 = system: HCC-827
Method in brief: as §1

LCLC-97TM1 = system: LCLC-97TM1
Method in brief: as §1

LK-2 = system: LK-2
Method in brief: as §1

LOU-NH91 = system: LOU-NH91
Method in brief: as §1

NCI-H1395 = system: NCI-H1395
Method in brief: as §1

NCI-H1437 = system: NCI-H1437
Method in brief: as §1

NCI-H1650 = system: NCI-H1650
Method in brief: as §1

NCI-H1755 = system: NCI-H1755
Method in brief: as §1

NCI-H2009 = system: NCI-H2009
Method in brief: as §1

NCI-H2023 = system: NCI-H2023
Method in brief: as §1

NCI-H2170 = system: NCI-H2170
Method in brief: as §1

NCI-H522 = system: NCI-H522
Method in brief: as §1

NCI-H596 = system: NCI-H596
Method in brief: as §1

NCI-H727 = system: NCI-H727
Method in brief: as §1

PC-14 = system: PC-14
Method in brief: as §1

SK-LU-1 = system: SK-LU-1
Method in brief: as §1

SW 900 = system: SW 900
Method in brief: as §1

UMC-11 = system: UMC-11
Method in brief: as §1

## Nc1cccc2c1CN(C1CCC(=O)NC1=O)C2=O (stereo not drawn) [Lenalidomide] + Nc1ncn([C@H]2C[C@H](O)[C@@H](CO)O2)c(=O)n1 [Decitabine] (partner 2 µM)
ABC-1; first compound 0.253 µM
  relative viability: 0.929
ABC-1; first compound 0.8 µM
  relative viability: 1.05
ABC-1; first compound 2.53 µM
  relative viability: 0.827
ABC-1; first compound 8 µM
  relative viability: 0.939
BEN; first compound 0.253 µM
  relative viability: 0.728
BEN; first compound 0.8 µM
  relative viability: 0.635
BEN; first compound 2.53 µM
  relative viability: 0.766
BEN; first compound 8 µM
  relative viability: 0.62
EKVX; first compound 0.253 µM
  relative viability: 0.326
EKVX; first compound 0.8 µM
  relative viability: 0.4
EKVX; first compound 2.53 µM
  relative viability: 0.336
EKVX; first compound 8 µM
  relative viability: 0.331
EMC-BAC-2; first compound 0.253 µM
  relative viability: 0.998
EMC-BAC-2; first compound 0.8 µM
  relative viability: 0.929
EMC-BAC-2; first compound 2.53 µM
  relative viability: 0.995
EMC-BAC-2; first compound 8 µM
  relative viability: 0.801
EPLC-272H; first compound 0.253 µM
  relative viability: 0.382
EPLC-272H; first compound 0.8 µM
  relative viability: 0.381
EPLC-272H; first compound 2.53 µM
  relative viability: 0.413
EPLC-272H; first compound 8 µM
  relative viability: 0.32
HCC-78; first compound 0.253 µM
  relative viability: 0.731
HCC-78; first compound 0.8 µM
  relative viability: 0.637
HCC-78; first compound 2.53 µM
  relative viability: 0.703
HCC-78; first compound 8 µM
  relative viability: 0.558
HCC-827; first compound 0.253 µM
  relative viability: 0.336
HCC-827; first compound 0.8 µM
  relative viability: 0.284
HCC-827; first compound 2.53 µM
  relative viability: 0.348
HCC-827; first compound 8 µM
  relative viability: 0.35
LCLC-97TM1; first compound 0.253 µM
  relative viability: 0.226
LCLC-97TM1; first compound 0.8 µM
  relative viability: 0.236
LCLC-97TM1; first compound 2.53 µM
  relative viability: 0.256
LCLC-97TM1; first compound 8 µM
  relative viability: 0.221
LK-2; first compound 0.253 µM
  relative viability: 0.312
LK-2; first compound 0.8 µM
  relative viability: 0.177
LK-2; first compound 2.53 µM
  relative viability: 0.36
LK-2; first compound 8 µM
  relative viability: 0.187
LOU-NH91; first compound 0.253 µM
  relative viability: 0.815
LOU-NH91; first compound 0.8 µM
  relative viability: 0.826
LOU-NH91; first compound 2.53 µM
  relative viability: 0.831
LOU-NH91; first compound 8 µM
  relative viability: 0.765
NCI-H1395; first compound 0.253 µM
  relative viability: 0.763
NCI-H1395; first compound 2.53 µM
  relative viability: 0.743
NCI-H1395; first compound 8 µM
  relative viability: 0.703
NCI-H1437; first compound 0.253 µM
  relative viability: 0.556
NCI-H1437; first compound 0.8 µM
  relative viability: 0.5
NCI-H1437; first compound 2.53 µM
  relative viability: 0.59
NCI-H1437; first compound 8 µM
  relative viability: 0.648
NCI-H1650; first compound 0.253 µM
  relative viability: 0.387
NCI-H1650; first compound 0.8 µM
  relative viability: 0.424
NCI-H1650; first compound 2.53 µM
  relative viability: 0.419
NCI-H1650; first compound 8 µM
  relative viability: 0.479
NCI-H1755; first compound 0.253 µM
  relative viability: 0.763
NCI-H1755; first compound 0.8 µM
  relative viability: 0.687
NCI-H1755; first compound 2.53 µM
  relative viability: 0.712
NCI-H1755; first compound 8 µM
  relative viability: 0.688
NCI-H2009; first compound 0.253 µM
  relative viability: 0.415
NCI-H2009; first compound 0.8 µM
  relative viability: 0.387
NCI-H2009; first compound 2.53 µM
  relative viability: 0.406
NCI-H2009; first compound 8 µM
  relative viability: 0.397
NCI-H2023; first compound 0.253 µM
  relative viability: 0.205
NCI-H2023; first compound 0.8 µM
  relative viability: 0.269
NCI-H2023; first compound 2.53 µM
  relative viability: 0.248
NCI-H2023; first compound 8 µM
  relative viability: 0.231
NCI-H2170; first compound 0.253 µM
  relative viability: 0.49
NCI-H2170; first compound 0.8 µM
  relative viability: 0.429
NCI-H2170; first compound 2.53 µM
  relative viability: 0.469
NCI-H2170; first compound 8 µM
  relative viability: 0.471
NCI-H522; first compound 0.253 µM
  relative viability: 0.759
NCI-H522; first compound 0.8 µM
  relative viability: 0.76
NCI-H522; first compound 2.53 µM
  relative viability: 0.694
NCI-H522; first compound 8 µM
  relative viability: 0.626
NCI-H596; first compound 0.253 µM
  relative viability: 0.85
NCI-H596; first compound 0.8 µM
  relative viability: 1.46
NCI-H596; first compound 2.53 µM
  relative viability: 1.06
NCI-H596; first compound 8 µM
  relative viability: 0.95
NCI-H727; first compound 0.253 µM
  relative viability: 0.778
NCI-H727; first compound 0.8 µM
  relative viability: 0.637
NCI-H727; first compound 2.53 µM
  relative viability: 0.99
NCI-H727; first compound 8 µM
  relative viability: 0.616
PC-14; first compound 0.253 µM
  relative viability: 0.199
PC-14; first compound 0.8 µM
  relative viability: 0.189
PC-14; first compound 2.53 µM
  relative viability: 0.24
PC-14; first compound 8 µM
  relative viability: 0.226
SK-LU-1; first compound 0.253 µM
  relative viability: 0.614
SK-LU-1; first compound 0.8 µM
  relative viability: 0.58
SK-LU-1; first compound 2.53 µM
  relative viability: 0.72
SK-LU-1; first compound 8 µM
  relative viability: 0.603
SW 900; first compound 2.53 µM
  relative viability: 0.51
SW 900; first compound 8 µM
  relative viability: 0.532
UMC-11; first compound 0.253 µM
  relative viability: 0.46
UMC-11; first compound 0.8 µM
  relative viability: 0.688
UMC-11; first compound 2.53 µM
  relative viability: 0.725
UMC-11; first compound 8 µM
  relative viability: 0.621
